In the NIST ThermoML archive (doi:10.1021/je060475r):

Experiment: xn = mol fraction of the nth substance listed
Settings: 101 kPa, Liquid

O=CN1CCOCC1 [N-formylmorpholine] + Cc1ccccc1
Settings | mass density [kg/m3] | viscosity [mPa·s]
298.15 K, x2 = 0 | 1146.06 | 7.955
298.15 K, x2 = 0.0997 | 1118.85 | 6.045
298.15 K, x2 = 0.1857 | 1095.98 | 4.343
298.15 K, x2 = 0.2987 | 1064.62 | 3.106
298.15 K, x2 = 0.3979 | 1036.62 | 2.334
298.15 K, x2 = 0.4996 | 1007.87 | 1.769
298.15 K, x2 = 0.5993 | 979.41 | 1.376
298.15 K, x2 = 0.701 | 949.94 | 1.064
298.15 K, x2 = 0.8004 | 920.72 | 0.846
298.15 K, x2 = 0.9 | 891.62 | 0.681
303.15 K, x2 = 0 | 1141.7 | 6.877
303.15 K, x2 = 0.0997 | 1114.45 | 5.223
303.15 K, x2 = 0.1857 | 1091.57 | 3.824
303.15 K, x2 = 0.2987 | 1060.17 | 2.771
303.15 K, x2 = 0.3979 | 1032.11 | 2.116
303.15 K, x2 = 0.4996 | 1003.25 | 1.614
303.15 K, x2 = 0.5993 | 974.76 | 1.261
303.15 K, x2 = 0.701 | 945.23 | 0.994
303.15 K, x2 = 0.8004 | 916.11 | 0.79
303.15 K, x2 = 0.9 | 887 | 0.636
313.15 K, x2 = 0 | 1132.96 | 5.214
313.15 K, x2 = 0.0997 | 1105.62 | 4.037
313.15 K, x2 = 0.1857 | 1082.68 | 3.035
313.15 K, x2 = 0.2987 | 1051.22 | 2.248
313.15 K, x2 = 0.3979 | 1022.87 | 1.754
313.15 K, x2 = 0.4996 | 993.89 | 1.323
313.15 K, x2 = 0.5993 | 965.36 | 1.076
313.15 K, x2 = 0.701 | 935.9 | 0.854
313.15 K, x2 = 0.8004 | 906.8 | 0.69
313.15 K, x2 = 0.9 | 877.53 | 0.569
323.15 K, x2 = 0 | 1124.33 | 4.08
323.15 K, x2 = 0.0997 | 1096.88 | 3.219
323.15 K, x2 = 0.1857 | 1073.89 | 2.475
323.15 K, x2 = 0.2987 | 1042.33 | 1.864
323.15 K, x2 = 0.3979 | 1013.75 | 1.471
323.15 K, x2 = 0.4996 | 984.5 | 1.13
323.15 K, x2 = 0.5993 | 955.91 | 0.929
323.15 K, x2 = 0.701 | 926.58 | 0.747
323.15 K, x2 = 0.8004 | 897.51 | 0.613
323.15 K, x2 = 0.9 | 868.21 | 0.508
333.15 K, x2 = 0 | 1115.63 | 3.284
333.15 K, x2 = 0.0997 | 1088.08 | 2.622
333.15 K, x2 = 0.1857 | 1065 | 2.057
333.15 K, x2 = 0.2987 | 1033.38 | 1.576
333.15 K, x2 = 0.3979 | 1004.52 | 1.259
333.15 K, x2 = 0.4996 | 975.06 | 0.979
333.15 K, x2 = 0.5993 | 946.52 | 0.813
333.15 K, x2 = 0.701 | 917.23 | 0.66
333.15 K, x2 = 0.8004 | 888.11 | 0.544
333.15 K, x2 = 0.9 | 858.77 | 0.453
343.15 K, x2 = 0 | 1107.96 | 2.707
343.15 K, x2 = 0.0997 | 1080.32 | 2.189
343.15 K, x2 = 0.1857 | 1057.15 | 1.748
343.15 K, x2 = 0.2987 | 1025.32 | 1.353
343.15 K, x2 = 0.3979 | 996.41 | 1.096
343.15 K, x2 = 0.4996 | 966.84 | 0.888
343.15 K, x2 = 0.5993 | 938.07 | 0.72
343.15 K, x2 = 0.701 | 908.7 | 0.59
343.15 K, x2 = 0.8004 | 879.44 | 0.49
343.15 K, x2 = 0.9 | 850.05 | 0.412
353.15 K, x2 = 0 | 1098.76 | 2.274
353.15 K, x2 = 0.0997 | 1070.98 | 1.804
353.15 K, x2 = 0.1857 | 1047.73 | 1.505
353.15 K, x2 = 0.2987 | 1015.94 | 1.179
353.15 K, x2 = 0.3979 | 986.63 | 0.96
353.15 K, x2 = 0.4996 | 957.13 | 0.791
353.15 K, x2 = 0.5993 | 928.16 | 0.644
353.15 K, x2 = 0.701 | 898.81 | 0.531
353.15 K, x2 = 0.8004 | 869.48 | 0.444
353.15 K, x2 = 0.9 | 839.94 | 0.377
